Data: PubChem BioAssay AID1159564 (GlaxoSmithKline (GSK), 2015)
Activity calls are given as the source filed them. The rule behind the calls is not given here.

Tested on: L. donovani-infected THP-1 macrophages, intracellular amastigote imaging
Experiment: intracellular L. donovani amastigote inhibition, imaging, THP-1 host macrophages, host toxicity (AID 1159564)
[1] = measured here: THP-1 host cell toxicity
[2] = measured here: amastigotes per macrophage

Compound	IC50	IC50 [1] [µM]	IC50 [2] [µM]
COc1ccc(Nc2nc(NC3CCC(O)CC3)ncc2Br)c(C(N)=O)c1 (configuration not stated)	1 µM	0.4	0.63
O=C(CSc1nnc(-c2ccc3c(c2)OCO3)o1)N(Cc1ccco1)CC(F)(F)F	7.9 µM	> 50	3.2
COc1ccc2c(Cl)c(C(=O)N3CCC3)sc2c1Cl	> 50 µM (inactive)	> 50	> 50
Cc1cc(NC(=O)C2CCCCC2)n(-c2nc3c(c(=O)[nH]2)CCC3)n1	5 µM	10	3.2
O=C(CN(Cc1ccccn1)Cc1ccccn1)NCc1csc(-c2cccs2)n1	6.3 µM	> 50	3.2
Nc1nonc1-c1nc2cncc(C(=O)N3CC[C@H](N)C3)c2n1CC1CC1	20 µM	13	40
CC(C)COC(=O)Nc1ccc(N2CCC(CNS(=O)(=O)c3ccccc3)CC2)c(F)c1	2 µM	> 50	1.3
CCc1ccccc1[C@@H](C)NC(=O)c1cnc2c(cnn2CC)c1NC1CCN(C(N)=O)CC1	> 50 µM (inactive)	> 50	> 50
COCc1cc(Nc2ccc(Cl)cc2)nc(-c2ccccn2)n1	1.3 µM	20	0.79
COc1ccc(S(=O)(=O)NC(C)C)cc1Nc1ncc(-c2cccc(F)c2)cn1	> 50 µM (inactive)	> 50	> 50
Cc1cc2nc(N3CC[C@H]3C(N)=O)nc(Nc3cc(C4CC4)[nH]n3)c2s1	2 µM	0.79	1.3
O=C(Nc1nc(-c2ccccn2)cs1)c1ccc(S(=O)(=O)N2CCCCC2)cc1	1.3 µM	13	1
O=C(Nc1n[nH]c(-c2ccccn2)n1)C1CC1c1ccccc1 (configuration not stated)	7.9 µM	20	7.9
O=C(CN(Cc1ccccn1)Cc1ccccn1)NCc1ccc(-c2csnn2)cc1	5 µM	> 79	5
Nc1nccc(-c2csc(Nc3ccc(Cl)cc3)n2)n1	1 µM	> 50	1
O=C(c1ccc(O)c(Cl)c1)N1CCN(c2cnccn2)CC1	5 µM	> 50	3.2
O=C(CSc1ccc(-c2ccccn2)nn1)Nc1ccc(Cl)cc1	> 50 µM (inactive)	> 50	> 50
CC1CN(S(=O)(=O)c2ccc(NC(=O)c3cc(C4CC4)nc4c3cnn4C(C)C)cc2)CC(C)O1 (configuration not stated)	> 50 µM (inactive)	10	> 50
CCc1c(C)nc(-n2nc(C)cc2NC(=O)COc2ccccc2F)[nH]c1=O	7.9 µM	4	5
O=C(Nc1nc2ccccc2[nH]1)c1ccc2nc[nH]c2c1	5 µM	> 50	3.2
CCOc1ccc(OCC(=O)N2c3ccccc3CC2C(=O)NC)cc1 (configuration not stated)	> 50 µM (inactive)	> 50	> 50
O=S1N=C(NCCCN(Cc2ccc(F)cc2)c2ccccn2)C(NCc2ccncc2)=N1 (configuration not stated)	> 50 µM (inactive)	25	25
COc1ccc(CN(C)Cc2ccncc2)cc1-c1ccc(S(=O)(=O)NC2CCC2)s1	> 50 µM (inactive)	20	16

Compound	IC50	IC50 [1] [µM]	IC50 [2] [µM]
CCOc1ccccc1C(=O)Nc1nnc(-c2ccc3c(c2)OCO3)s1	0.5 µM	> 50	0.32
CCCC(=O)N(Cc1ccccn1)c1nc2ccccc2s1	> 50 µM (inactive)	> 50	10
CN(Cc1nc2ccccc2s1)C(=O)C=Cc1cc2ccccc2o1	> 50 µM (inactive)	> 50	16
CCCCc1cc(Nc2cc(C3CCC3)[nH]n2)nc(N2CCC2C(N)=O)n1 (configuration not stated)	2 µM	1	0.63
COc1ccc(C2C3CCCCC3(O)CCN2CC(=O)Nc2ccc(Cl)cc2Cl)cc1 (configuration not stated)	2.5 µM	> 50	0.79
O=C(Nc1ccccc1)Nc1nc(-c2ccccn2)cs1	0.4 µM	6.3	0.25
CN(CCOc1ccc(Cl)cc1)Cc1nc(N)nc(N(C)C)n1	7.9 µM	> 50	5
COc1ccc2ncc(Cl)c(CCN3CC[C@@H](NCc4cc5c(cn4)OCS5)[C@H](O)C3)c2n1	13 µM	25	7.9
CN(C)c1ccc(-c2cc3nccnc3c(OC[C@H]3CCCNC3)n2)cn1	20 µM	20	25
CN(Cc1cccnc1)Cc1ccc(N2CCN(C(=O)C3(c4ccc(Cl)cc4)CC3)CC2)nc1	> 50 µM (inactive)	10	> 50
O=C(NCc1ccncc1)c1ccccc1N1CCCN(C(=O)Cc2ccc(F)c(F)c2)CC1	> 50 µM (inactive)	> 50	> 50
O=[N+]([O-])c1cccc(Nc2cncc(-c3ccccc3CO)c2)c1	> 50 µM (inactive)	> 50	> 50
CS(=O)(=O)NC1CCC(Oc2cc3cnccc3cc2-c2ccsc2)CC1 (configuration not stated)	50 µM	16	20
CCC1Oc2cc(S(=O)(=O)N(C)CC(=O)N3CCc4ccccc4C3)c(C)cc2NC1=O (configuration not stated)	> 50 µM (inactive)	> 50	32
CC(=O)NC1(c2ccccc2)CCN(CC(=O)Nc2ccccc2-c2ccccc2)CC1	> 50 µM (inactive)	> 50	40
O=C(Cc1ccccc1)Nc1[nH]nc2sc(C(=O)NC3CCCC3)cc12	3.2 µM	1.6	1.6
CCc1ccc2nc(NC(=O)c3cc(N4CCOCC4)ccn3)sc2c1	1.3 µM	10	0.79
COc1ccc(CNc2cc(C3CC3)nc(-c3nccn3C)n2)cc1	0.79 µM	13	0.79
Cc1cc(N(C)C)nc2ccc(Cc3cnc(N)nc3N)cc12	32 µM	40	40
N#CN1CC[C@@H](NC(=O)Nc2ccccc2Oc2ccccc2)C1	5 µM	25	4
NC(=O)c1cc(F)ccc1Nc1nc(NC2CCC(O)CC2)ncc1Cl (configuration not stated)	1.3 µM	0.63	0.79
CNC(=O)C1Cc2ccccc2N1C(=O)Cc1ccc(OC)cc1 (configuration not stated)	7.9 µM	7.9	13
Cc1nc2nc(C)c(Cc3ccc(C(C)C)cc3)c(=O)n2[nH]1	32 µM	> 50	16

Compound	IC50	IC50 [1] [µM]	IC50 [2] [µM]
NC(=O)c1ccccc1Nc1nc(NC2CCCCC2)nc2[nH]ccc12	13 µM	10	13
CN(C)Cc1cccc(Nc2nccc(-c3ccc(NCCN)c(C#N)c3)n2)c1	1.3 µM	6.3	0.5
O=C(CCCn1cnc([N+](=O)[O-])n1)Nc1cccc(Cl)c1	> 50 µM (inactive)	> 50	> 50
O=C(Nc1nc2cc(Cl)ccc2o1)c1cccc(Cl)c1	> 50 µM (inactive)	6.3	> 50
CN(Cc1nc2c(C(=O)N3CCN(Cc4ccccc4)CC3)cccc2[nH]1)C1CCCc2cccnc21 (configuration not stated)	1.3 µM	10	0.79
CC1CCCCN1C(=O)NCCc1coc(-c2ccc(F)cc2)n1 (configuration not stated)	> 50 µM (inactive)	> 50	> 50
Cc1nn(C)c(Cl)c1CN(Cc1cccnc1)Cc1ccsc1	> 50 µM (inactive)	> 50	3.2
CC(C(=O)Nc1ccc(Br)cc1)N1CCN(c2ccc([N+](=O)[O-])cc2)CC1 (configuration not stated)	> 50 µM (inactive)	> 50	> 50
CC1CN(Cc2ccc(C#N)cc2)CCN1c1ccc(NC(=O)c2ccccc2F)cc1 (configuration not stated)	10 µM	> 50	5
Cc1nc2c(-c3ncn[nH]3)cc(NC(=O)Cc3ccccc3)cn2c1C	0.4 µM	7.9	0.32
Cc1c(C(C)NC(=O)Nc2cccc(Cl)c2)sc2ncnn12 (configuration not stated)	> 50 µM (inactive)	> 50	2
COCCn1c(-c2ccc3c(c2)OCO3)cnc1NCc1ccccc1OC	10 µM	40	5
O=C(NCc1ccc(-n2cccc2)cc1)c1nc(Cn2ccc([N+](=O)[O-])n2)no1	> 50 µM (inactive)	> 50	> 50
O=C(Nc1ccc(C(=O)N2CCCC2c2ccc3c(c2)OCCCO3)cc1)c1ccco1 (configuration not stated)	6.3 µM	> 50	3.2
CCN(CC)S(=O)(=O)c1ccc(C)c(NC(=O)c2cc(Cl)c3c(c2)OCO3)c1	> 50 µM (inactive)	> 50	> 50
Cc1cn[nH]c1C1CCCN(Cc2nc3ccccc3n2C)C1 (configuration not stated)	4 µM	20	3.2
Cc1cc(NC(=O)C2CC2)ccc1OC1CCN(Cc2ccco2)CC1	20 µM	13	13
Cc1[nH]nc2c1C(c1ccc(OCc3ccccc3F)cc1)SCC(=O)N2 (configuration not stated)	> 50 µM (inactive)	> 50	> 50
c1ccc2c(CCOc3nccnc3-c3ccncc3)c[nH]c2c1	> 50 µM (inactive)	20	20
COc1cccc(-c2c(C)nn(-c3nc(N)nc(-c4ccccn4)n3)c2N)c1	2 µM	> 50	1.6
Cc1[nH]nc(Nc2ccnc3[nH]ccc23)c1C	> 50 µM (inactive)	> 50	> 50
CC(C)S(=O)(=O)c1ccc(-c2cnc(N)c3cc(-c4ccnc(N)n4)ccc23)cc1	1.3 µM	2.5	0.5
Cc1cccnc1NC(=O)c1cccc(OCc2c(C)noc2C)c1	20 µM	6.3	10
